From patent publication US4316898A, “Cephalosporins” (Boehringer Ingelheim KG, priority 1979, dated 1982)
Values after ≈ are worked out from the molar mass of the structure shown.

What was measured:
St. aureus E 88 = test: Serial dilution test in the microtiter system, MIC against S. aureus E 88 (β-lactamase carrier); type: cell-based; conditions: Staphylococcus aureus, E88, minimum inhibitory concentration, 37° C., 18 to 20 hours
Method: (§1) The tests were performed using the serial dilution test in the microtiter system. The effect of the test compounds on bacteriostasis was examined at the following concentrations: 80, 40, 20, 10, 5, 2.5, 1.25, 0.6, 0.3, 0.08 and 0.02 μgm/ml. The nutrient medium consisted of 10 gm of peptone, 8 gm of meat extract oxoid, 3 gm of sodium chloride, and 2 gm of sec. sodium phosphate diluted with distilled water to […] (pH 7.2-7.4). Only in the test against streptococci 1% of glucose was added. The age of the primary cultures was approximately 20 hours. The standardization of the bacteria suspension was effected using a photometer according to the method of Eppendorf (test tube .phi. 14 mm, filter 546 nm), using for comparison a barium sulfate suspension formed by the addition of 3.0 ml of 1% barium chloride solution to 97 ml of 1% sulfuric acid. After the standardization,Streptococcus aronson was further diluted to a concentration of 1:15, and the other bacteria to a concentration of 1:1500, using a sodium chloride solution.
(§2) 16 mgm of the particular test compound were put into a 10 ml measuring flask, and the flask was subsequently filled to the mark with solvent. The further dilution series was standardized with distilled water or the appropriate solvent.
(§3) The cavities of the microtiter plates were filled with 0.2 ml of nutrient medium. 0.01 ml of the appropriate test compound solution was then added, followed by inoculation with 0.01 ml of the standardized bacteria suspension. The bacteria were incubated at 37° C. for 18 to 20 hours. Control tests using only the solvent were carried out simultaneously.
(§4) The measurement was carried out macroscopically to determine the minimum inhibitory concentration (the lowest still bacteriostatically effective concentration).
(§5) The following test organisms were used:
(§6) Staphylococcus aureus SG 511, St. aureus E 88 (β-lactamase carrier), Escherichia coli ATCC 11 775, Pseudomonas aeruginosa Hamburgensis and Pseudomonas aeruginosa Walter, Serratia macrescens ATCC 13 880, Klebsiella pneumoniae ATCC 10 031 and 272, Proteus mirabilis Hamburgensis, Proteus rettgeri Eb. cloaceae ATCC 13047, and E. coli R+TEM (β-lactamase carrier).
(§7) The following tables show the determined minimum inhibitory concentrations (MIC) for a few representative compounds (E=Na) of the present invention, and two known cephalosporins for comparison: […]

Eb. cloaceae ATCC 13047 = test: Serial dilution test in the microtiter system, MIC against Eb. cloaceae ATCC 13047; type: cell-based; conditions: minimum inhibitory concentration; 37° C., 18 to 20 hours
Method: as §1, §2, §3, §4, §5, §6, §7

[1] = test system: Escherichia coli ATCC 11 775; test: Serial dilution test in the microtiter system, MIC against E. coli ATCC 11775; type: cell-based; conditions: minimum inhibitory concentration, 37° C., 18 to 20 hours
Method: as §1, §2, §3, §4, §5, §6, §7

[2] = test system: Pseudomonas aeruginosa Walter; test: Serial dilution test in the microtiter system, MIC against Pseudomonas aeruginosa Walter; type: cell-based; conditions: minimum inhibitory concentration, 37° C., 18 to 20 hours, read-out: MIC, Pseud. aerug. Walter
Method: as §1, §2, §3, §4, §5, §6, §7

Proteus rettgeri = test: Serial dilution test in the microtiter system, MIC against Proteus rettgeri; type: cell-based; conditions: Providencia rettgeri; minimum inhibitory concentration; 37° C., 18 to 20 hours; read-out: MIC, Prot. rettg.
Method: as §1, §2, §3, §4, §5, §6, §7

[3] = test system: Klebsiella pneumoniae ATCC 10 031; test: Serial dilution test in the microtiter system, MIC against Klebsiella pneumoniae ATCC 10031; type: cell-based; conditions: minimum inhibitory concentration, 37° C., 18 to 20 hours, read-out: MIC, Klebs. pneum. ATCC 10031
Method: as §1, §2, §3, §4, §5, §6, §7

[4] = test system: Klebsiella pneumoniae 272; test: Serial dilution test in the microtiter system, MIC against Klebsiella pneumoniae 272; type: cell-based; conditions: minimum inhibitory concentration, 37° C., 18 to 20 hours, read-out: MIC, Klebs. pneum. 272
Method: as §1, §2, §3, §4, §5, §6, §7

[5] = test system: Proteus mirabilis Hamburgensis; test: Serial dilution test in the microtiter system, MIC against Proteus mirabilis Hamburgensis; type: cell-based; conditions: minimum inhibitory concentration, 37° C., 18 to 20 hours, read-out: MIC, Prot. Mir. Hbg.
Method: as §1, §2, §3, §4, §5, §6, §7

[6] = test system: Serratia macrescens ATCC 13 880; test: Serial dilution test in the microtiter system, MIC against Serratia marcescens ATCC 13880; type: cell-based; conditions: read-out: MIC, Serr. marcesc. ATCC 13880
Method: as §1, §2, §3, §4, §5, §6, §7

[7] = test system: Staphylococcus aureus SG 511; test: Serial dilution test in the microtiter system, MIC against S. aureus SG 511; type: cell-based; conditions: SG511, minimum inhibitory concentration, 37° C., 18 to 20 hours
Method: as §1, §2, §3, §4, §5, §6, §7

[8] = test system: Pseudomonas aeruginosa Walter; test: In vivo test in mice against experimental Pseudomonas infection; set-up: species or system Female NMRI mice; conditions: Pseudomonas aeruginosa, sc, 168 h; subcutaneous; per dose; dose at which 50% of the animals survived; observation 7 days
Method: (§8) A series of the compounds according to the invention was tested in vivo in mice against experimental infections. As pathogenic bacteria were used E. coli ATCC 11775 and Pseudomonas aeruginosa Walter. An intraperitoneal infection was induced in each mouse with 0.2 ml of a 5% mucin suspension of the bacteria corresponding of approximately 1.4×10^6 E. coli cells and 1.3×10^6 Pseudomonas cells per mouse. Female NMRI mice were used, divided into groups of 10 animals. Two groups were untreated and the remaining groups were treated with different doses of the cephalosporins to be tested to determine the ED50 (dose at which 50% of the animals survived). The groups infected with E. coli were on the first day treated with the test compound three times ([…] post infectionem) and on the second day twice. The groups with the Pseudomonas infection were on the first day treated with the test compound six times (1, 3, 5, 7, 9 and 11 hours post infectionem), and on the following two days twice.
(§9) The observation time was in both cases 7 days.

E. coli ATCC 11775 = test: In vivo test in mice against experimental E. coli infection; set-up: species or system Female NMRI mice; conditions: Escherichia coli, ATCC11775, sc, 168 h; subcutaneous; per dose; dose at which 50% of the animals survived; observation 7 days
Method: as §8, §9

E. coli R+TEM = test: Serial dilution test in the microtiter system, MIC against E. coli R+TEM (β-lactamase carrier); type: cell-based; conditions: Escherichia coli, read-out: MIC, E. coli R + TEM
Method: as §1, §2, §3, §4, §5, §6, §7

[9] = test system: Pseudomonas aeruginosa Hamburgensis; test: Serial dilution test in the microtiter system, MIC against Pseudomonas aeruginosa Hamburgensis; type: cell-based; conditions: minimum inhibitory concentration, 37° C., 18 to 20 hours, read-out: MIC, Pseud. aerug. Hbg.
Method: as §1, §2, §3, §4, §5, §6, §7

Row | SMILES | MIC (St. aureus E 88) [µg/mL] | MIC (Eb. cloaceae ATCC 13047) [µg/mL] | MIC [1] [µg/mL] | MIC [2] [µg/mL] | MIC (Proteus rettgeri) [µg/mL] | MIC [3] [µg/mL] | MIC [4] [µg/mL] | MIC [5] [µg/mL] | MIC [6] [µg/mL] | MIC [7] [µg/mL] | ED50 [8] [mg/kg] | ED50 (E. coli ATCC 11775) [mg/kg] | MIC (E. coli R+TEM) [µg/mL] | MIC [9] [µg/mL]
1 | CCCNc1ncc(NC(=O)N[C@@H](C(=O)N[C@@H]2C(=O)N3C(C(=O)O)=C(CSc4nnnn4C)CS[C@H]23)c2ccc(O)cc2)c(O)n1 [B] | 8 (≈ 11.9 µM) | 1 (≈ 1.49 µM) | 0.5 (≈ 0.744 µM) | 8 (≈ 11.9 µM) | 1 (≈ 1.49 µM) | 0.5 (≈ 0.744 µM) | 0.5 (≈ 0.744 µM) | 0.25 (≈ 0.372 µM) | 1 (≈ 1.49 µM) | 1 (≈ 1.49 µM) | 12.4 | 1.1 | 8 | 4 (≈ 5.95 µM)
2 | Cn1nnnc1SCC1=C(C(=O)O)N2C(=O)[C@@H](NC(=O)[C@H](NC(=O)Nc3cnc(NCCCO)nc3O)c3ccc(O)cc3)[C@H]2SC1 [E] | 8 (≈ 11.6 µM) | 0.5 (≈ 0.727 µM) | 0.25 (≈ 0.364 µM) | 8 (≈ 11.6 µM) | 1 (≈ 1.45 µM) | 0.5 (≈ 0.727 µM) | 1 (≈ 1.45 µM) | 0.13 (≈ 0.189 µM) | 1 (≈ 1.45 µM) | 1 (≈ 1.45 µM) | 11.2 | 0.8 | 16 | 4 (≈ 5.82 µM)
